Tests used:
[1] = target: T1, Adrenergic receptor alpha-1 (Rattus norvegicus, UniProt P15823+P23944+P43140); assay: Binding affinity towards alpha-1 adrenergic receptors in rat brain synaptosomal preparations; format: tissue-based
T1 sequence (P15823 whole entry): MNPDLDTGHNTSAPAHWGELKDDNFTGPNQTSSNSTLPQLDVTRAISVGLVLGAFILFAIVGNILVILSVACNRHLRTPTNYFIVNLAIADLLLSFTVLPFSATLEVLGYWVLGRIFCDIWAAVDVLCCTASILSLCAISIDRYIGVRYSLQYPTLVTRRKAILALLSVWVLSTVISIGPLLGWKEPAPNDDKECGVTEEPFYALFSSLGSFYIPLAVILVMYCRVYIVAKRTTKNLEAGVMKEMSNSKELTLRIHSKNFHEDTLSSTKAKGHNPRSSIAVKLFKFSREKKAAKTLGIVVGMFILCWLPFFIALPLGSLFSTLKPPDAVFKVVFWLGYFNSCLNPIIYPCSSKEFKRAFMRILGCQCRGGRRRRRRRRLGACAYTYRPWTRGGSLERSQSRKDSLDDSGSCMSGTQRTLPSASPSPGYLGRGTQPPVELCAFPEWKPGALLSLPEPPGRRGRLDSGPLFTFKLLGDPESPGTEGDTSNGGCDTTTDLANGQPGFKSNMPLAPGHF
T1 sequence (P23944 whole entry): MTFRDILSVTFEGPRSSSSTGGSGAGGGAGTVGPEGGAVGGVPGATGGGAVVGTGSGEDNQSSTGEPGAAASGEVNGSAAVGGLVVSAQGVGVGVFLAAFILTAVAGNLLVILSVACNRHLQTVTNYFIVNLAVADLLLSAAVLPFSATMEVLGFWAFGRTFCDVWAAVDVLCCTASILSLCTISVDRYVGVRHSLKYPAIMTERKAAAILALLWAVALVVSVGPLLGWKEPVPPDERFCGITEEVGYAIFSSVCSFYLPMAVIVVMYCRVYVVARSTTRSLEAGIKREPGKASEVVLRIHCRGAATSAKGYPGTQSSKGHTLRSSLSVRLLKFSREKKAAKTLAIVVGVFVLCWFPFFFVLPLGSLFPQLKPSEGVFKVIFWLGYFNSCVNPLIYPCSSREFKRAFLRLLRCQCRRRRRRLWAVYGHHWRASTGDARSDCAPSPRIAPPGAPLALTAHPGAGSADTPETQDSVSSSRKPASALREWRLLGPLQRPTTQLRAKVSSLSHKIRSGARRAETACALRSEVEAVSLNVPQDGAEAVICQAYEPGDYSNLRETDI
T1 sequence (P43140 whole entry): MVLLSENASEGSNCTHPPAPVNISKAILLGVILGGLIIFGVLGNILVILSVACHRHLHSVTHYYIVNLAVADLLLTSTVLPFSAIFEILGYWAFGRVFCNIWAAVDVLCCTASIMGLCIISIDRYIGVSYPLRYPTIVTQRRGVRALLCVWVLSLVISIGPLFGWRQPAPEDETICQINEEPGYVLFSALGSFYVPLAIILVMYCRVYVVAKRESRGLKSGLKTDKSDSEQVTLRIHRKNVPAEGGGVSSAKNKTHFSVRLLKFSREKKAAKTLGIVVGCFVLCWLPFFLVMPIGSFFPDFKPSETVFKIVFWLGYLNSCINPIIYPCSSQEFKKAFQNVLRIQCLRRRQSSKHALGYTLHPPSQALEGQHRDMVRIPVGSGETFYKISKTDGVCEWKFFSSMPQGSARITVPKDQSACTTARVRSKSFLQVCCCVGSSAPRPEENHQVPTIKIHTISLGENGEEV

D(2) dopamine receptor = D(2) dopamine receptor (Rattus norvegicus, UniProt P61169); assay: Binding affinity towards dopamine D2 receptors in rat brain synaptosomal preparations; format: tissue-based
[2] = target: T2, 5-hydroxytryptamine receptor 1A (Rattus norvegicus, UniProt P19327)
T2 sequence (P19327 whole entry): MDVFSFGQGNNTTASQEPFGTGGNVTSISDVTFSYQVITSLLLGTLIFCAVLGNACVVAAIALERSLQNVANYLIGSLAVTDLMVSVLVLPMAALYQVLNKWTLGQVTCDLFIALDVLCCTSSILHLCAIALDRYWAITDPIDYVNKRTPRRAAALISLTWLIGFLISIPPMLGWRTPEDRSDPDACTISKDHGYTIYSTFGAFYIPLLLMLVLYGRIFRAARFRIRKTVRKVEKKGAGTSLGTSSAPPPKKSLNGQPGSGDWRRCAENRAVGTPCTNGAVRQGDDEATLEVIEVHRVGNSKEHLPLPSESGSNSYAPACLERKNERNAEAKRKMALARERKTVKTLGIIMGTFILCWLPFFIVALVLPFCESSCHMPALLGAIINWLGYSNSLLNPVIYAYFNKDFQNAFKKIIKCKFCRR
Description: Binding affinity towards 5-hydroxytryptamine 1A receptor of rat brain synaptosomal preparations

[3] = target: T3, Adrenergic receptor alpha-2 (Rattus norvegicus, UniProt P22086+P19328+P22909)
T3 sequence (P22086 whole entry): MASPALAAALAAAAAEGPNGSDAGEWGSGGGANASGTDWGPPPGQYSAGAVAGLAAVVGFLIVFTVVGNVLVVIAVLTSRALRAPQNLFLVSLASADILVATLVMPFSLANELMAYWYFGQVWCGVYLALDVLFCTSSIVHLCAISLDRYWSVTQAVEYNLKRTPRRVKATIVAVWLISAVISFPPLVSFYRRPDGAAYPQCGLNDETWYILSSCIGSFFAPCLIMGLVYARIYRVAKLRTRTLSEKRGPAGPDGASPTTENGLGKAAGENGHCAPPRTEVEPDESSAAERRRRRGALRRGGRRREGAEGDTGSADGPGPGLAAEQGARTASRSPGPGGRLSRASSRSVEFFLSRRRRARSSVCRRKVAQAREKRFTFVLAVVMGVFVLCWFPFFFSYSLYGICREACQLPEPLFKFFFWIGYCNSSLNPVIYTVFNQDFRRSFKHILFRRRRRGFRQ
T3 sequence (P19328 whole entry): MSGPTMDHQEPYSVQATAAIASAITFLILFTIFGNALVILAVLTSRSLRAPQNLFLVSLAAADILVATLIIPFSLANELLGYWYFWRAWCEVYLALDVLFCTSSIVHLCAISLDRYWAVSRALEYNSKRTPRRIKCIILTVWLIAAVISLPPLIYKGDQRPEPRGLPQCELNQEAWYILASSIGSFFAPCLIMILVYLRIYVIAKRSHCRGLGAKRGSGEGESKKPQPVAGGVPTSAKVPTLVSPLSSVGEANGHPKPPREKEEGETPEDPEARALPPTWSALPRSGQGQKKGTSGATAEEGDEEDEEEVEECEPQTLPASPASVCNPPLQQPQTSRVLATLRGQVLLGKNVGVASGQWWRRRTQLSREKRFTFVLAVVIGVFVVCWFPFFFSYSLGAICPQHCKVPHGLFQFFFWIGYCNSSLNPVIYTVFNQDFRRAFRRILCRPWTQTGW
T3 sequence (P22909 whole entry): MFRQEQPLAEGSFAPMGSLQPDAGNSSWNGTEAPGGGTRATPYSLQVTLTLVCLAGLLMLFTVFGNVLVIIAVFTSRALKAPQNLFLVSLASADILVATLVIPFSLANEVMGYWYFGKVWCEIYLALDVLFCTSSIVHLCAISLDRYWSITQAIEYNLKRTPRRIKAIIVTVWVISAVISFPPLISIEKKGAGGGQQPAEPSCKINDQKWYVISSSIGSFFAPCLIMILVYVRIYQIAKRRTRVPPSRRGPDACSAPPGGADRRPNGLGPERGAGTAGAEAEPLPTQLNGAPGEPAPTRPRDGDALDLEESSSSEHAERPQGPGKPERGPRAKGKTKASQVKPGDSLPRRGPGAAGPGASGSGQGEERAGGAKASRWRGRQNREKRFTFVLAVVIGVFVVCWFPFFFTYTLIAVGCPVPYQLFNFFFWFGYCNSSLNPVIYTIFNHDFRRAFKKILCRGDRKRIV
Description: Binding affinity towards alpha-2 adrenergic receptors in rat brain synaptosomal preparations

Rattus norvegicus [4] = organism: Rattus norvegicus; assay: The compound was evaluated for the conditioned avoidance response data (CAR) in rat intra peritoneally; format: functional
[5] = target: 5-hydroxytryptamine receptor 1B (Rattus norvegicus, UniProt P28564); assay: Binding affinity towards 5-hydroxytryptamine 1B receptor
[6] = target: Serotonin 2 (5-HT2) receptor (Rattus norvegicus, UniProt P30994+P08909+P14842); assay: Binding affinity towards 5-hydroxytryptamine 2 receptor; format: protein assay
[7] = Partition coefficient (logP); format: physicochemical; settings: octanol/water
Canis familiaris = assay: The compound is evaluated for inhibition of apomorphine induced emesis in dogs after peroral administration; format: functional, Canis lupus familiaris
D(1A) dopamine receptor = D(1A) dopamine receptor (Homo sapiens, UniProt P21728); assay: Binding affinity towards dopamine receptor D1 (human clone)
D(1B) dopamine receptor = D(1B) dopamine receptor (Rattus norvegicus, UniProt P25115); assay: Binding affinity towards Dopamine receptor D5 (rat clone)
D(3) dopamine receptor = D(3) dopamine receptor (Rattus norvegicus, UniProt P19020); assay: Binding affinity towards baculovirus expressed rat dopamine D3 receptors
Mus musculus = assay: The compound is evaluated for inhibition of apomorphine induced climbing behavior in mice after peroral administration; format: functional; settings: po
[8] = target: Muscarinic acetylcholine receptor; assay: Binding affinity towards muscarinic receptors; format: protein assay, Rattus norvegicus
Rattus norvegicus [9] = assay: The compound is evaluated for inhibition of 8-OH-DPAT induced reciprocal forepaw treading in reserpinized rats after intraperitoneal administration; format: functional; settings: ip
Rattus norvegicus [10] = assay: The compound was evaluated for the conditioned avoidance response data (CAR) in rat intravenous administration at 0.66 mg/kg concentration; format: functional
Rattus norvegicus [11] = assay: The compound was evaluated for the conditioned avoidance response data (CAR) in rat peroral administration; format: functional; settings: po
Rattus norvegicus [12] = assay: The compound is evaluated for induction of catalepsy in rats at a dose of 100 mg/kg after peroral administration; format: functional; settings: route oral
[13] = target: Sigma non-opioid intracellular receptor 1 (Rattus norvegicus, UniProt Q9R0C9); assay: Binding affinity towards sigma receptors
Sequence of Sigma non-opioid intracellular receptor 1 (Q9R0C9 whole entry): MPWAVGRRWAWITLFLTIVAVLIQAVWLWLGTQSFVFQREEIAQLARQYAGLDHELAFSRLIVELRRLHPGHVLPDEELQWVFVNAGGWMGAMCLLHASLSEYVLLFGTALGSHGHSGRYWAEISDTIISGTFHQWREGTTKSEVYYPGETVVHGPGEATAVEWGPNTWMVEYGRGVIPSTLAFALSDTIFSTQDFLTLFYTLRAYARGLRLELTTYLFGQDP

Sequence of D(2) dopamine receptor (P61169 whole entry): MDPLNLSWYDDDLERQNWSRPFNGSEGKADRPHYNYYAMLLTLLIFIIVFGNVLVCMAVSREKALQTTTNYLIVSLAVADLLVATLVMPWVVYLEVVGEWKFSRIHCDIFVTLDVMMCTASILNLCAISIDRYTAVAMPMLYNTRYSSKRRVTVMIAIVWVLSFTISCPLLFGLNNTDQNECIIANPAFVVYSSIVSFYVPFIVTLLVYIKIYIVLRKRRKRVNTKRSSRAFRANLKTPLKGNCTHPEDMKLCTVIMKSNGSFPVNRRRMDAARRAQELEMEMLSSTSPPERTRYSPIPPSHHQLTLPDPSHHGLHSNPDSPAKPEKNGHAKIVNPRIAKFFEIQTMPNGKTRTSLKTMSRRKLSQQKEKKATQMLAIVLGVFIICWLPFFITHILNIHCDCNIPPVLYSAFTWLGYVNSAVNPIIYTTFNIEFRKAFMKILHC
Sequence of D(3) dopamine receptor (P19020 whole entry): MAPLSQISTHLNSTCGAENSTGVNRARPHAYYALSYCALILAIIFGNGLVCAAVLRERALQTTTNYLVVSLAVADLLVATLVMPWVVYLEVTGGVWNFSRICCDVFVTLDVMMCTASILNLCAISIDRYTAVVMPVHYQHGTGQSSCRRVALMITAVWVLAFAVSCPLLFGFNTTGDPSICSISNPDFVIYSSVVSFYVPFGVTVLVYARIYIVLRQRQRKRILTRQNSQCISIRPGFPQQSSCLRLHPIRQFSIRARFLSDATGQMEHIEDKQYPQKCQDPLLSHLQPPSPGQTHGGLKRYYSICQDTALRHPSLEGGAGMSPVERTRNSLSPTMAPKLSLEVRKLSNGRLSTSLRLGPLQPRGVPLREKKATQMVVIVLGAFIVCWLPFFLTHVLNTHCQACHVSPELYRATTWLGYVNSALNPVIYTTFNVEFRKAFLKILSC
Sequence of D(1B) dopamine receptor (P25115 whole entry): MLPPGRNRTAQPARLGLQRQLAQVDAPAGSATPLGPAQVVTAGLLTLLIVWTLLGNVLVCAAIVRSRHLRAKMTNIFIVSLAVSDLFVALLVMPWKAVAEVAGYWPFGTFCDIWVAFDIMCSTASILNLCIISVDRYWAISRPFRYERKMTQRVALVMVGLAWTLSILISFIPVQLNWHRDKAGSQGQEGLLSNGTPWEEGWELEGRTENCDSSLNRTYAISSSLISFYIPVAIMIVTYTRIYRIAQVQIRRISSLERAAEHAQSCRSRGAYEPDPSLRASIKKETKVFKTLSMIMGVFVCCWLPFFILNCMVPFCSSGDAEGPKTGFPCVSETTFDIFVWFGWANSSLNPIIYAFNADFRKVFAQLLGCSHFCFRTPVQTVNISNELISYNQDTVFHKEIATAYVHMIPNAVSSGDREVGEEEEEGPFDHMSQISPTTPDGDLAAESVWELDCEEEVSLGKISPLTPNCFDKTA
Sequence of D(1A) dopamine receptor (P21728 whole entry): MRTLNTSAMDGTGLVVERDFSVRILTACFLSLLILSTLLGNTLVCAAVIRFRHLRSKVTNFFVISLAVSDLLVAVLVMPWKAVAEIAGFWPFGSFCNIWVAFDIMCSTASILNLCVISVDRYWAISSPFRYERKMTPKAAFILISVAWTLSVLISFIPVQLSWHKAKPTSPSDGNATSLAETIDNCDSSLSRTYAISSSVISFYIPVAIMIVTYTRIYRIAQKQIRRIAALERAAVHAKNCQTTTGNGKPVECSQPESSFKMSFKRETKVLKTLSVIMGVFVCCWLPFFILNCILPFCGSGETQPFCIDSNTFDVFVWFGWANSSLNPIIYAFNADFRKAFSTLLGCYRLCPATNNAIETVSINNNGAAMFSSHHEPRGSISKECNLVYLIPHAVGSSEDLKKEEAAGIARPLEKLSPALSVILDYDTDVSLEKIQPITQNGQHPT
Sequence of 5-hydroxytryptamine receptor 1B (P28564 whole entry): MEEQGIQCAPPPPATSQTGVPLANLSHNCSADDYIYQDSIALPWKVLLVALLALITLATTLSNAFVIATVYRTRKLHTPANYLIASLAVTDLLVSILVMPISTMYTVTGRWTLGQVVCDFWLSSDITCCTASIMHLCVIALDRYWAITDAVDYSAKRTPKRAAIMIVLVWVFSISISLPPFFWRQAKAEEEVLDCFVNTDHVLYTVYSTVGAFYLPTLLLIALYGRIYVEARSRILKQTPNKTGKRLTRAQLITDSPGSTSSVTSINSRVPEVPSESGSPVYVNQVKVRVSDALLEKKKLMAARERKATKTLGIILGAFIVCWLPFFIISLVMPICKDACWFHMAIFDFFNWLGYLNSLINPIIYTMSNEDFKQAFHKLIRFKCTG

CC(C)Oc1ccccc1N1CCN(Cc2ccccc2C(=O)N2CCCCC2)CC1
Ki [1]: 220 nM | Ki (D(2) dopamine receptor): 37 nM | Ki [2]: 6.8 nM | Ki [3]: 16 nM

CC(C)Oc1ccccc1N1CCN(Cc2ccc(C(=O)N3CCCCC3)cc2)CC1
Ki [1]: 3 nM | Ki (D(2) dopamine receptor): 100 nM | Ki [2]: 560 nM

CC(C)Oc1ccccc1N1CCN(Cc2ccc(CN3CCCCC3=O)cc2)CC1
Ki [3]: 1000 nM

CN1CCN(C2=Nc3cc(Cl)ccc3Nc3ccccc32)CC1 [CLOZAPINE]
ED50 (Rattus norvegicus [4]): 4 mg/kg

CC(C)Oc1ccccc1N1CCN(Cc2cccc(C(=O)N3CCCCC3)c2)CC1 [MAZAPERTINE]
Ki [5]: 2880 nM | Ki [6]: 165 nM | logP [7]: 4 | ED50 (Canis familiaris): 0.038 mg/kg | Ki (D(1A) dopamine receptor): > 5000 nM | Ki (D(1B) dopamine receptor): > 5000 nM | Ki (D(3) dopamine receptor): 1.8 nM | ED50 (Mus musculus): 0.6 mg/kg | Ki [8]: > 5000 nM | ED50 (Rattus norvegicus [9]): 5.24 mg/kg | ED50 (Rattus norvegicus [10]): 0.23 mg/kg | ED50 (Rattus norvegicus [11]): 13.8 mg/kg | Catalepsy (Rattus norvegicus [12]): 30% | Ki [13]: > 5000 nM | Ki [3]: 17 nM
